Reference: patent US5434247A, “Peptides for inducing monocyte cytotoxicity in diagnostics” (Board of Regents, The University of Texas System, priority 1992, dated 1995)
“Also recorded” adds a separate entry of the source. Like-named read-outs stand apart in the source and are kept apart here. *1 amine or outer side, *2 acyl side, *3 side chain or, on linkers, in order; H or OH if unused. Where a SMILES comes first, the peptide text is derived from it. Bridges are numbered along the chain shown (N, C = ends). Roman numbers before positions name the chains, in order. Where no end group is shown, it is not given here. [ ]: non-standard residue; d: D form. Actinocin(9to1) = Cc1c2oc3c(C)ccc(C(=O)[*:1])c3nc-2c(C(=O)[*:2])c(N)c1=O; NMeV = CN[C@H](C(=O)O)C(C)C; Sar = CNCC(=O)O

How the values were obtained:
human monocytes / K562 = experiment: Human monocyte cytotoxicity assay (MCF assay), 111In-Ox labeled K562 targets; assay type: cell-based; settings: for monocyte cytotoxicity inducing activity (in words) / concentration at which the peptide activates human blood monocytes for cytotoxicity: K562 target; for concentration at which the peptide activates human blood monocytes for cytotoxicity: purified peptide, monocytes of eight human donors
Experimental: FIG. 1. Hybrid cells were adjusted to 1×10^6 /ml and stimulated with 8 ug/ml PHA(+). […] to control (-) cultures, and both supernatants harvested by centrifugation. Monocyte cytotoxicity was measured as described herein with the exception that the monocyte monolayer was incubated overnight to allow for decay of NK cell activity. The monolayer was incubated for a second 24 hr period with dilutions of MCF containing supernatants. Dilutions represented are 1/4 in a total test volume of 0.2 ml. […] Microtiter plates were centrifuged 16 hrs later, and supernatants collected and counted. % specific release was calculated as described herein.
Only healthy volunteer donors were used. All volunteer donors signed an informed consent, and the protocol was approved by the Committee for the Protection of Human Subjects, University of Texas Health Science Center. Mononuclear cells were prepared by centrifugation over Ficoll/Hypaque. […] The monolayer was incubated overnight to allow for decay of residual natural killer activity before addition of lymphokine preparations on day 2.
The effector to target ratio was 30:1. […] After 18 hrs incubation of monocyte monolayer with target, the plates were centrifuged and supernatant was removed and cpms were counted in a Beckman Biogamma 2000. Specific release was calculated as described by Wiltrout, supra. […] Other tumor targets used were HL-60, L5178Y and TU5 (Table V).

FtF3 cells = experiment: Effects of metabolic inhibitors and tunicamycin on MCF production; assay type: cell-based, human; settings: for effect on MCF production of PHA-stimulated FtF3 cells: cells incubated 4 h with inhibitor (0 to 100 ug/ml), washed, PHA 24 h; for effect on MCF production of nonstimulated (non-PHA treated) cells: puromycin at doses of 10-50 ug/ml; for biological activity of MCF after biosynthesis in the presence of the agent: tunicamycin 0, 1, 2.5 or 5.0 ug/ml
Experimental: (§1) FIG. 2. FtF3 cells were incubated 4 h with various doses of actinomycin D. Cells were washed and stimulated with PHA for 24 h before harvesting supernatants by centrifugation, extensive dialysis, and bioassay.( ) One set of each dose of inhibitor-treated cells was labelled with ^3 H-uridine, stimulated, lysed and harvested 24 h later, and counted by liquid scintillation.(.quadrature.) Viability of FtF3 at 24 h was greater than 80% at all doses tested.
as §1, with “3.” for “2.”, “cycloheximide.” for “actinomycin D.”, “3 H-amino acids,” for “^3 H-uridine,”, “TCA-precipitated” for “lysed and harvested”
FIG. 4. FtF3 cells were incubated 4 h with various doses of puromycin. Cells were washed and resuspended either with ( ) or without (.quadrature.) PHA, and incubated 24 h before harvesting supernatants by centrifugation, extensive dialysis, and bioassay. Viability of FtF3 at 24 h was greater than 80% at all doses tested.
Urea treatment was accomplished by adding 3 grams of solid urea to 10 ml MCF (28.5 U/ml) (5M urea final). Extraction of MCF with butanol-diisopropyl ether was performed. FtF3 cells were cultured with 0, 1, 2.5 or 5.0 ug/ml tunicamycin. […] MCF supernatants were extracted with butanol-diisopropyl ether; the aqueous phase contained 36.7% less MCF than the control preparation.
FtF3 cells at a concentration of 1×10^6 /ml in RPMI 1640/10% FCS were incubated 4 hours with either actinomycin D, cycloheximide, or puromycin (all at 0 to 100 ug/ml, Sigma). Tests for viability after treatment were performed by trypan blue exclusion and supernatants were collected by centrifugation. In a second set of experiments FtF3 cells at the same concentration but using 0.1% human serum were incubated for 5 hours with either cycloheximide or puromycin. Uptake experiments were performed by adjusting FtF3 cells to 1×10^6 /ml in media after treatment with inhibitor, and adding either 5,6-^3 H-uridine (ICN Radiochemicals, Irvine, Calif., USA, […]) to actinomycin D treated cells or ^3 H L-amino acid mixture (25.5 mci/mg) to cycloheximide-treated cells at 1 uCi to 1×10^5 cells. Cells were subsequently lysed and counted by liquid scintillation.

[1] = Enzyme treatment of MCF supernatants; assay type: physicochemical; settings: in contrast to MCF
Experimental: In order to treat MCF supernatants with enzymes, 10 ml of the supernatant (28.5 units/ml) were treated with 1 mg/ml trypsin at pH 7.4, 1 mg/ml chymotrypsin at pH 7.4, 0.5 mg/ml DNase at pH 7.4, or 40 units/ml RNase at pH 5 for 1 hour at 25° C. […] The experiments were repeated using insolubilized enzymes to minimize the possibility that enzymes could be carried over into the bioassay and could explain the results.

[2] = all doses tested, trypan blue exclusion

With GAAVLENSQ [MJ-1] the “monocyte cytotoxicity inducing activity (in words)” value (human monocytes / K562) was “capable of inducing human monocyte cytotoxicity; also recorded: found to have biological MCF activity”, the “decrease in the biological activity of the peptide by the substitution, versus MJ-2” value (human monocytes / K562; parallel assays, same human donors) was ~3 log fold and the “concentration at which the peptide activates human blood monocytes for cytotoxicity” value (human monocytes / K562) was 10^-6 M.

In the case of `C[C@@H]1C[C@@H]([C@H](O)CC2CC(=O)NC(=O)C2)C(=O)[C@@H](C)C1` [cycloheximide], the “lectin-induced MCF production with inhibitor present for the entire incubation period” value (FtF3 cells) is reported as “not suppressed”, the “Viability of FtF3 at 24 h” value (FtF3 cells; [2]) is reported as “greater than 80%” and the “effect on MCF production of PHA-stimulated FtF3 cells” value (from here on “effect … of PHA-stimulated FtF3 cells”) (FtF3 cells) is reported as “suppressed but did not abolish”. For the same molecule, the “effect on MCF production of nonstimulated (non-PHA treated) cells” value (from here on “effect … (non-PHA treated) cells”) (FtF3 cells) was “only a slight stimulatory effect”.

With “GM-CSF: recombinant GM-CSF [reference compound]” the “% specific lysis” value (human monocytes / K562; cytokine added at 50 U/ml) was -2.5 ± 15.9%, the “% specific lysis” value (human monocytes / K562; cytokine added at 100 U/ml) was 5.7 ± 3.1% and the “% specific lysis” value (human monocytes / K562; cytokine added at 200 U/ml) was -0.6 ± 4.9%.

In the case of `Cc1c2oc3c(C)ccc(C(=O)N[C@@H]4C(=O)N[C@H](C(C)C)C(=O)N5CCC[C@H]5C(=O)N(C)CC(=O)N(C)[C@@H](C(C)C)C(=O)O[C@@H]4C)c3nc-2c(C(=O)N[C@@H]2C(=O)N[C@H](C(C)C)C(=O)N3CCC[C@H]3C(=O)N(C)CC(=O)N(C)[C@@H](C(C)C)C(=O)O[C@@H]2C)c(N)c1=O` [actinomycin D] (I: T[dV]P[Sar][NMeV] / II: T[dV]P[Sar][NMeV]; ester I:1-I:C, II:1-II:C; linker I:N-II:N via Actinocin(9to1)), the “Viability of FtF3 at 24 h” value (FtF3 cells; [2]) is reported as “greater than 80%”, the “effect … of PHA-stimulated FtF3 cells” value (FtF3 cells) is reported as “totally suppressed” and the “effect … (non-PHA treated) cells” value (FtF3 cells) is reported as “no effect”.

In the case of GAAVLEDSQ [MJ-2], the “monocyte cytotoxicity inducing activity (in words)” value (human monocytes / K562) is reported as “exhibits the same high level activity as the intact protein of 29kD; also recorded: capable of activating human blood monocytes for tumor cytotoxicity; also recorded: to a similar extent as the intact protein of 29kD” and the “concentration at which the peptide activates human blood monocytes for cytotoxicity” value (human monocytes / K562) is reported as “approximately 10^-9 M”.

For “rIL1β: recombinant IL 1 beta (Cistron Biotechnology) [reference compound]”, the “% specific lysis” value (human monocytes / K562; cytokine added at 0.1 U/ml) was -8.7 ± 2.8%, the “% specific lysis” value (human monocytes / K562; cytokine added at 1 U/ml) was -4.9 ± 4.6% and the “% specific lysis” value (human monocytes / K562; cytokine added at 10 U/ml) was -1.8 ± 9.6%.

For tunicamycin, the “biological activity of MCF after biosynthesis in the presence of the agent” value (FtF3 cells) was “no significant change”.

For “Gly Ala Ala Val Leu (GAAVL; printed: Gly Ala Ala Val Leu) [MJ-3, truncated five-mer, native 5 N-terminal amino acids of P29]”, the “monocyte cytotoxicity inducing activity (in words)” value (human monocytes / K562) was “not determined to be above the background for the assay”, the “monocyte cytotoxicity inducing activity (in words)” value (human monocytes / K562; listed as MJ3) was “did not reliably exhibit biological activity” and the “specific release of label” value (human monocytes / K562; one experiment, input of 10^2 mg of protein) was 25%.

With `OCCS` [2-mercaptoethanol] the “biological activity of MCF after biosynthesis in the presence of the agent” value (FtF3 cells) was “no significant change”.

With Leu Glu Asp Ser Gln (LEDSQ) [MJ-5] the “monocyte cytotoxicity inducing activity (in words)” value (human monocytes / K562) was “critical for biological activity”.

In the case of IFN-α [reference compound], the “% specific lysis” value (human monocytes / K562; cytokine added at 1 U/ml) is reported as 4.5 ± 3.0%, the “% specific lysis” value (human monocytes / K562; cytokine added at 10 U/ml) is reported as -5.4 ± 9.2% and the “% specific lysis” value (human monocytes / K562; cytokine added at 100 U/ml) is reported as -2.1 ± 12.4%. The “% specific lysis” value (human monocytes / K562; cytokine added at 1000 U/ml) was -8.9 ± 8.8%.

In the case of `COc1ccc(C[C@H](N)C(=O)N[C@H]2[C@@H](O)[C@H](n3cnc4c(N(C)C)ncnc43)O[C@@H]2CO)cc1` [puromycin], the “Viability of FtF3 at 24 h” value (FtF3 cells) is reported as “greater than 80%”, the “lectin-induced MCF production with inhibitor present for the entire incubation period” value (FtF3 cells) is reported as “suppressive in a dose-dependent manner” and the “effect … of PHA-stimulated FtF3 cells” value (FtF3 cells) is reported as “suppressed but did not totally abolish”. For the same molecule, the “effect … (non-PHA treated) cells” value (FtF3 cells) was “appeared to stimulate”.

B1: IFN-γ: human gamma interferon (protein, UniProt P01579 24-161, looked up)
Interferon gamma: QDPYVKEAENLKKYFNAGHSDVADNGTLFLGILKNWKEESDRKIMQSQIVSFYFKLFKNFKDDQSIQKSVETIKEDMNVKFFNSNKKKRDDFEKLTNYSVTDLNVQRKAIHELIQVMAELSPAAKTGKRKRSQMLFRG
With B1 the “monocyte cytotoxicity inducing activity (in words)” value (human monocytes / K562) was “only slight activity”, the “increase in specific lysis” value (human monocytes / K562; amounts up to 1000 U/ml final concentration) was 6.2% and the “% specific lysis” value (human monocytes / K562; cytokine added at 10 U/ml) was -3.5 ± 1.1%. For the same molecule, the “% specific lysis” value (human monocytes / K562; cytokine added at 100 U/ml) was 3.4 ± 3.2%, the “% specific lysis” value (human monocytes / K562; cytokine added at 1000 U/ml) was 6.2 ± 4.4% and the effect of trypsin [1] was “inactivated”.

B2: eIL1α: recombinant IL 1 alpha (Cistron Biotechnology) (protein, UniProt P01583 113-271, looked up)
Interleukin-1 alpha: SAPFSFLSNVKYNFMRIIKYEFILNDALNQSIIRANDQYLTAAALHNLDEAVKFDMGAYKSSKDDAKITVILRISKTQLYVTAQDEDQPVLLKEMPEIPKTITGSETNLLFFWETHGTKNYFTSVAHPNLFIATKQDYWVCLAGGPPSITDFQILENQA
With B2 the “% specific lysis” value (human monocytes / K562; cytokine added at 0.1 U/ml) was -4.1 ± 4.1%, the “% specific lysis” value (human monocytes / K562; cytokine added at 1 U/ml) was -3.6 ± 5.6% and the “% specific lysis” value (human monocytes / K562; cytokine added at 10 U/ml) was -0.7 ± 7.6%.

B3: m-CSF: purified m-CSF (protein, UniProt P09603 33-554, looked up)
Macrophage colony-stimulating …: EEVSEYCSHMIGSGHLQSLQRLIDSQMETSCQITFEFVDQEQLKDPVCYLKKAFLLVQDIMEDTMRFRDNTPNAIAIVQLQELSLRLKSCFTKDYEEHDKACVRTFYETPLQLLEKVKNVFNETKNLLDKDWNIFSKNCNNSFAECSSQDVVTKPDCNCLYPKAIPSSDPASVSPHQPLAPSMAPVAGLTWEDSEGTEGSSLLPGEQPLHTVDPGSAKQRPPRSTCQSFEPPETPVVKDSTIGGSPQPRPSVGAFNPGMEDILDSAMGTNWVPEEASGEASEIPVPQGTELSPSRPGGGSMQTEPARPSNFLSASSPLPASAKGQQPADVTGTALPRVGPVRPTGQDWNHTPQKTDHPSALLRDPPEPGSPRISSLRPQGLSNPSTLSAQPQLSRSHSSGSVLPLGELEGRRSTRDRRSPAEPEGGPASEGAARPLPRFNSVPLTDTGHERQSEGSFSPQLQESVFHLLVPSVILVLLAVGGLLFYRWRRRSHQEPQRADSPLEQPEGSPLTQDDRQVELPV
In the case of B3, the “% specific lysis” value (human monocytes / K562; cytokine added at 17.3 U/ml) is reported as 26.0 ± 6.5%, the “% specific lysis” value (human monocytes / K562; cytokine added at 173 U/ml) is reported as 14.5 ± 4.6% and the “% specific lysis” value (human monocytes / K562; cytokine added at 1730 U/ml) is reported as -3.9 ± 4.7%.
